{"source": "patent US11712446B2", "about": "“Methods of mobilizing marrow infiltrating lymphocytes and uses thereof” (GLYCOMIMETICS, INC., priority 2017, dated 2023)", "assay_type_in_all_cases": "in vivo, BALB/c mice", "key": {"[1]": {"tested_on": "CD8+ T cells", "assay": "Flow cytometric CD62L/CD44 phenotype of CD8+ T cells in peripheral blood and bone marrow of CT26 immune mice (MIL mobilization)", "conditions": "12 hours after final dose", "protocol": "(§1) Protocol for Detection and Mobilization of MILs in the CT-26 tumor model: GMI-1271 is a potent, small-molecule, glycomimetic antagonist of E-selectin. GMI-1359 is a potent, small-molecule glycomimetic dual antagonist, targeting E-selectin and CXCR4. The effects of inhibiting either E-selectin with GMI-1271 or E-selectin and CXCR4 with GMI-1359 on MIL mobilization was tested in BALB/c mice that had been induced to reject the syngeneic CT26 colon carcinoma via anti-CTLA-4 T cell checkpoint antibody.\nTreatment with anti-CTLA-4 for all mice implanted with CT26.WT began on Day 3. All mice were dosed intraperitoneally on Days 3, 6, 10, 13, and 17. All mice were dosed according to individual body weight on the day of treatment (0.2 mg/20 g).\nOn Day 25, mice without tumors following CTLA-4 treatment were distributed into the four “Tumor Immune” treatment groups indicated in Table 1 such that the mean body weight within each group was within 10% of the overall mean.\n(§2) Treatment for “Tumor Immune” groups 1-4 began on Day 25. The Vehicle was dosed intraperitoneally every 12 hours for 3 days (Days 25-27). GMI-1271 and GMI-1359 were dosed intraperitoneally at 40 mg/kg every 12 hours for 3 days (Days 25-27). G-CSF was dosed at 0.125 mg/kg subcutaneously every 12 hours for 3 days (Days 25-27).\nA “Nonimmune” group 5 was populated with age-matched, naive non-tumor bearing mice.\n(§3) At 12 hours after the final dose of test agents, all mice in groups 1-5 (treatment “Tumor Immune” groups 1-4 and control “Nonimmune” group 5) were euthanized for blood and bone marrow collection.\n(§4) Flow cytometric analysis was used to determine CD62L and CD44 expression on CD8+ T cells in whole blood and bone marrow samples. Secondary analysis included AH-1 Dextramer analysis on the three tissue types and IFNγ production in pooled blood and bone marrow samples. Samples were acquired using a 4 laser, 14 color Attune NxT Flow Cytometer with autosampler. CD62L and CD44 events were gated on CDS+ T cells."}, "[2]": {"tested_on": "CD8+ MILs", "assay": "IFNγ production by bone marrow CD8+ MILs following in vitro stimulation with irradiated CT-26 tumor cells or AH1", "conditions": "tumor immunized mice, 40 mg/kg IP every 12 hours for 3 days, FIG. 2", "protocol": "as §1, §2, §3\nas §4, with “CD62L and CD44 events were gated on CDS+ T cells.” left out"}, "[3]": {"tested_on": "CD8+ T-cells in peripheral blood", "assay": "Percent of CD8+ lymphocytes in peripheral blood armed to produce IFNγ", "conditions": "CT26 immune mice; GMI compounds 40 mg/kg IP, G-CSF 0.125 mg/kg SC, every 12 hours for 3 days; 12 hours after final dose; FIG. 3", "protocol": "as §1, §2, §3\nas §4, with “CD62L and CD44 events were gated on CDS+ T cells.” left out"}}, "data": [{"compound": "CC[C@H]1C[C@@H](C(=O)NCCNC(=O)CCOCCOCCOCCOCCOCCOCCOCCOCCOCCOCCOCCOC)C[C@@H](O[C@@H]2O[C@H](CO)[C@H](O)[C@H](O[C@@H](CC3CCCCC3)C(=O)[O-])[C@H]2NC(C)=O)[C@@H]1O[C@@H]1O[C@@H](C)[C@@H](O)[C@@H](O)[C@@H]1O.[Na+]", "note": "[GMI-1271]", "values": [{"measurement": "redistribution of effector memory (EM, CD62L-CD44+) CD8+ T cells", "setting": "[1]; 40 mg/kg IP every 12 hours for 3 days, FIG. 1C", "result": "not effected"}, {"measurement": "mobilization of naïve (CD62L+CD44−) CD8+ T cells into the peripheral blood", "setting": "[1]; GMI compounds 40 mg/kg IP, G-CSF 0.125 mg/kg SC, every 12 hours for 3 days, FIG. 1A", "result": "mobilized"}, {"measurement": "mobilization of central memory (CM, CD62L+CD44+) CD8+ T cells into the peripheral blood", "setting": "[1]; GMI compounds 40 mg/kg IP, G-CSF 0.125 mg/kg SC, every 12 hours for 3 days, FIG. 1B", "result": "mobilized"}, {"measurement": "functional activity of bone marrow CD8+ MILs (IFNγ production) after in vitro stimulation", "setting": "[2]", "result": "primed to respond to both AH1 and whole tumor cells"}, {"measurement": "percentage of CD8+ T-cells in peripheral blood primed to produce IFNγ", "setting": "[3]", "result": "markedly increased"}]}]}
